According to US11447466B2, “Substituted indole compounds useful as inhibitors of TLR7/8/9” (BRISTOL-MYERS SQUIBB COMPANY, priority 2017, dated 2022):

What was measured:
Type in all cases: cell-based
[1] = biological target: T1, human TLR8 (Homo sapiens, UniProt Q9NR97); test: TLR8 inhibition reporter assay (HEK-Blue SEAP reporter, R848 stimulation); conditions: HEK-Blue cells overexpressing human TLR8, SEAP reporter, R848 15.9 μM, 22 hour incubation
T1 construct: host or cells: HEK-Blue cells
T1 sequence (Q9NR97 27-1041): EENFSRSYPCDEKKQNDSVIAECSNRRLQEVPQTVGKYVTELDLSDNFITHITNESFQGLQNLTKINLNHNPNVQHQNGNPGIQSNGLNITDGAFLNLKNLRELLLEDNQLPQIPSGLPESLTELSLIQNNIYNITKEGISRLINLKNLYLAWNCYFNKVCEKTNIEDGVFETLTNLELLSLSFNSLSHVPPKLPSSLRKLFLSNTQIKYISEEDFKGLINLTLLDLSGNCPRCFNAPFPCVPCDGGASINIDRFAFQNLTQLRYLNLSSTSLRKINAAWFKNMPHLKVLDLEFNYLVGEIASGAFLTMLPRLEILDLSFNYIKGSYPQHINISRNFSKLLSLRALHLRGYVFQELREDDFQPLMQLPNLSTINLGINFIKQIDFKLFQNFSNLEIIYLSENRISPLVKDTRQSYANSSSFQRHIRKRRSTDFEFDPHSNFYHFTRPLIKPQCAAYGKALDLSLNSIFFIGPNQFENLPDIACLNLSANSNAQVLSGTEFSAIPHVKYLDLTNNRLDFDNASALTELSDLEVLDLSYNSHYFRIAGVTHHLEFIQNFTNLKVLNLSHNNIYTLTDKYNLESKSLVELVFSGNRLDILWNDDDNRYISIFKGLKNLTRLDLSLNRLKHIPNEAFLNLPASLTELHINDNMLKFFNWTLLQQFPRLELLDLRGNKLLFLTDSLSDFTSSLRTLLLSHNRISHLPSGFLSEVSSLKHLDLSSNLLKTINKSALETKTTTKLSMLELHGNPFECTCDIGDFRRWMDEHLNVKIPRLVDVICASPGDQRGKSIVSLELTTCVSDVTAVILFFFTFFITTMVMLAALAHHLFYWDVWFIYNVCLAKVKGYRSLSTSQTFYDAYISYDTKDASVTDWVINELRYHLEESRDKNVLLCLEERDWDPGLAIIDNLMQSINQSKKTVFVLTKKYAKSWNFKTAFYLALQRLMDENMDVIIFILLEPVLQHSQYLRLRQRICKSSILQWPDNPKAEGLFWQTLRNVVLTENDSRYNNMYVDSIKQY
How it was run: (§1)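 Dose–response from 0.05 nM to 50 μM was run in HEK-Blue human TLR7, TLR8 and TLR9 reporter cells. After 30 min at room temperature with compound, ligand was added (TLR7 gardiquimod 7.5 μM; TLR8 R848 15.9 μM; TLR9 ODN2006 5 nM) and SEAP measured next day, at 22 h.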

[2] = biological target: T2, human TLR7 (Homo sapiens, UniProt Q9NYK1); test: TLR7 inhibition reporter assay (HEK-Blue SEAP reporter, gardiquimod stimulation); conditions: HEK-Blue cells overexpressing human TLR7, SEAP reporter, gardiquimod 7.5 μM, 22 hour incubation
T2 construct: host or cells: HEK-Blue cells
T2 sequence (Q9NYK1 27-1049): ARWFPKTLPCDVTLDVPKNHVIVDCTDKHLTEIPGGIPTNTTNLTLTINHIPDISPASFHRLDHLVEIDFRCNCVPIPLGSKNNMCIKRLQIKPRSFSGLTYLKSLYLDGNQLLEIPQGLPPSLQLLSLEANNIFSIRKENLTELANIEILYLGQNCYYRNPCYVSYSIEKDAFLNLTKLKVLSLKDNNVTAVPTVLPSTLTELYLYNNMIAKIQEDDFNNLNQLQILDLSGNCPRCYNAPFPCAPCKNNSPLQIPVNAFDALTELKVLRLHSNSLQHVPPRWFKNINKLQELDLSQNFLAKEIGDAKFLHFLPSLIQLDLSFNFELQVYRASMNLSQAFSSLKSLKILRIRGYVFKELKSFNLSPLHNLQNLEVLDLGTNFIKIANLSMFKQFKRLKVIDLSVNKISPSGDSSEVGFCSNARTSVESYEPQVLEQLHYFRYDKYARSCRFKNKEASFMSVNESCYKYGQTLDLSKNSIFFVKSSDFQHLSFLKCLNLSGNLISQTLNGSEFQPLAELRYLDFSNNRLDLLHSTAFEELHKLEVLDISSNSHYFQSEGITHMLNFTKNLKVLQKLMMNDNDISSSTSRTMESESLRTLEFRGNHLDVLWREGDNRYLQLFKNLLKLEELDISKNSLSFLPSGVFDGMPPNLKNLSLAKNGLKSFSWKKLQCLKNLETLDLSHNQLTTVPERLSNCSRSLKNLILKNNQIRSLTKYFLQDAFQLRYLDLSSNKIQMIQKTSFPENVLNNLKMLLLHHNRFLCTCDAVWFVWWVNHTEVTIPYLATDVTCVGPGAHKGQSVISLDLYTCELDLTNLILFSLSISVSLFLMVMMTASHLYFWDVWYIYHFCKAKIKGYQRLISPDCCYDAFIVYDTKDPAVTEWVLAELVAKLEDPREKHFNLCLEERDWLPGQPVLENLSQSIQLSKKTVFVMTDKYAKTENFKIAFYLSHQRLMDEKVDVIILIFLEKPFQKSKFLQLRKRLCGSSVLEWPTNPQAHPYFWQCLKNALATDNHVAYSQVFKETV
How it was run: as §1

[3] = biological target: T3, human TLR9 (Homo sapiens, UniProt Q9NR96); test: TLR9 inhibition reporter assay (HEK-Blue SEAP reporter, ODN2006 stimulation); conditions: HEK-Blue cells overexpressing human TLR9, SEAP reporter, ODN2006 5 nM, 22 hour incubation
T3 construct: host or cells: HEK-Blue cells
T3 sequence (Q9NR96 26-1032): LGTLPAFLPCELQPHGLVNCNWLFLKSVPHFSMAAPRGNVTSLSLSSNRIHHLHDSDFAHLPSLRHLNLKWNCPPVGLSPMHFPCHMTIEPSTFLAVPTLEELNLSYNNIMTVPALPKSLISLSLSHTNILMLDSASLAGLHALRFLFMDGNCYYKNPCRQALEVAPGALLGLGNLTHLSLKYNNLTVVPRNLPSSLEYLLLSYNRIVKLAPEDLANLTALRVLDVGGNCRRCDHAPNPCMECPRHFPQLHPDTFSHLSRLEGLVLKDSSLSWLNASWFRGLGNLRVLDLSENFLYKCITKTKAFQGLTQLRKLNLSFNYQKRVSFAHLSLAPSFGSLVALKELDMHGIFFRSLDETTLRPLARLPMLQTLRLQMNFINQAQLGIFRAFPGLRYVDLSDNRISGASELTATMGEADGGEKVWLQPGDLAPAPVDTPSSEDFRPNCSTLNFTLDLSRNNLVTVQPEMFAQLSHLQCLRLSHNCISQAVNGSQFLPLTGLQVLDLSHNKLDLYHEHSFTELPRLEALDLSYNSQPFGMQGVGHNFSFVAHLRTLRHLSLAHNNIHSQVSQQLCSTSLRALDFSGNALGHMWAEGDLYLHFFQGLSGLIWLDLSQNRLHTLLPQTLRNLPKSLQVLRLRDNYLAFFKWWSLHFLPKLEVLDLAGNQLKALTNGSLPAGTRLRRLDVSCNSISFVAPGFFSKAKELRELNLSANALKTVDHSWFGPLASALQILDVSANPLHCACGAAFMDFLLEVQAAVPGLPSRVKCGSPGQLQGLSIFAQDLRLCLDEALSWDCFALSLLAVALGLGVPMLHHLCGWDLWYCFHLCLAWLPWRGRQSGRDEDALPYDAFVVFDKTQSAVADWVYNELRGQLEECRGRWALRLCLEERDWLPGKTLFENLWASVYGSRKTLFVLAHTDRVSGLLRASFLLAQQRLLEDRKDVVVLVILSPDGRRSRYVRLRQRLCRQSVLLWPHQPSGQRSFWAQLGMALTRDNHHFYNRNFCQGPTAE
How it was run: as §1

IC50 [1] | IC50 [2] | IC50 [3] | SMILES
22.1 nM | 2 nM | 5650 nM | Cc1c(-c2[nH]c3ccc(C4CCN(S(=O)(=O)CCN5CCCC5)CC4)cc3c2C(C)C)cn(C)c(=O)c1Cl [Example 308, 3-chloro-5-(3-isopropyl-5-(1-((2-(pyrrolidin-1-yl)ethyl)sulfonyl)piperidin-4-yl)-1H-indol-2-yl)-1,4-dimethylpyridin-2(1H)-one]
5.3 nM | 13.7 nM | 8510 nM | Cc1c(-c2[nH]c3ccc(C4CCN(CC(C)(C)O)CC4)cc3c2C(C)C)cn(C)c(=O)c1Cl [Example 309, 3-chloro-5-(5-(1-(2-hydroxy-2-methylpropyl)piperidin-4-yl)-3-isopropyl-1H-indol-2-yl)-1,4-dimethylpyridin-2(1H)-one]
1.3 nM | 2.3 nM | 5540 nM | Cc1cc(-c2[nH]c3ccc(C4CCN(CC(C)(C)O)CC4)cc3c2C(C)C)cn(C)c1=O [Example 310, 5-(5-(1-(2-hydroxy-2-methylpropyl)piperidin-4-yl)-3-isopropyl-1H-indol-2-yl)-1,3-dimethylpyridin-2(1H)-one]
3.9 nM | 17.7 nM | 3150 nM | Cc1cc(-c2[nH]c3ccc(C4CCN(CC(C)(C)O)CC4)cc3c2C(C)C)nn(C)c1=O [Example 311, 6-(5-(1-(2-hydroxy-2-methylpropyl)piperidin-4-yl)-3-isopropyl-1H-indol-2-yl)-2,4-dimethylpyridazin-3(2H)-one]
22.2 nM | 35.1 nM | 3170 nM | Cc1nc(-c2[nH]c3ccc(C4CCN(CC(C)(C)O)CC4)cc3c2C(C)C)cn(C)c1=O [Example 312, 5-(5-(1-(2-hydroxy-2-methylpropyl)piperidin-4-yl)-3-isopropyl-1H-indol-2-yl)-1,3-dimethylpyrazin-2(1H)-one]
3.1 nM | 4.7 nM | 8040 nM | Cc1cc(-c2[nH]c3ccc(C4CCN([C@H]5CCOC[C@@H]5O)CC4)cc3c2C(C)C)cn(C)c1=O [Example 313, 5-(5-(1-((3R,4S)-3-hydroxytetrahydro-2H-pyran-4-yl)piperidin-4-yl)-3-isopropyl-1H-indol-2-yl)-1,3-dimethylpyridin-2(1H)-one]
5.1 nM | 5.2 nM | 10100 nM | Cc1cc(-c2[nH]c3ccc(C4CCN([C@H]5COCC[C@@H]5O)CC4)cc3c2C(C)C)cn(C)c1=O [Example 314, 5-(5-(1-((3S,4S)-4-hydroxytetrahydro-2H-pyran-3-yl)piperidin-4-yl)-3-isopropyl-1H-indol-2-yl)-1,3-dimethylpyridin-2(1H)-one]
1.8 nM | 6.7 nM | 4940 nM | Cc1c(-c2[nH]c3ccc(C4CCN(CC(C)(C)O)CC4)cc3c2C(C)C)cn(C)c(=O)c1C [Example 315, 5-(5-(1-(2-hydroxy-2-methylpropyl)piperidin-4-yl)-3-isopropyl-1H-indol-2-yl)-1,3,4-trimethylpyridin-2(1H)-one]
1.9 nM | 10.2 nM | 3090 nM | Cc1cc(-c2[nH]c3ccc(C4CCN(CC(C)(C)O)CC4)cc3c2C(C)C)c(C)n(C)c1=O [Example 316, 5-(5-(1-(2-hydroxy-2-methylpropyl)piperidin-4-yl)-3-isopropyl-1H-indol-2-yl)-1,3,6-trimethylpyridin-2(1H)-one]
7.2 nM | 19.3 nM | 3580 nM | COc1c(C)c(-c2[nH]c3ccc(C4CCN(CC(C)(C)O)CC4)cc3c2C(C)C)cn(C)c1=O [Example 317, 5-(5-(1-(2-hydroxy-2-methylpropyl)piperidin-4-yl)-3-isopropyl-1H-indol-2-yl)-3-methoxy-1,4-dimethylpyridin-2(1H)-one]
22.3 nM | 361 nM | 3430 nM | COc1cc(-c2[nH]c3ccc(C4CCN(CC(C)(C)O)CC4)cc3c2C(C)C)c(C)n(C)c1=O [Example 318, 5-(5-(1-(2-hydroxy-2-methylpropyl)piperidin-4-yl)-3-isopropyl-1H-indol-2-yl)-3-methoxy-1,6-dimethylpyridin-2(1H)-one]
1.6 nM | 10.9 nM | 4330 nM | Cc1c(-c2[nH]c3ccc(C4CCN(CC5(O)CCOCC5)CC4)cc3c2C(C)C)cn(C)c(=O)c1C [Example 319, 5-(5-(1-((4-hydroxytetrahydro-2H-pyran-4-yl)methyl)piperidin-4-yl)-3-isopropyl-1H-indol-2-yl)-1,3,4-trimethylpyridin-2(1H)-one]
1.7 nM | 14.2 nM | 2310 nM | Cc1cc(-c2[nH]c3ccc(C4CCN(CC5(O)CCOCC5)CC4)cc3c2C(C)C)c(C)n(C)c1=O [Example 320, 5-(5-(1-((4-hydroxytetrahydro-2H-pyran-4-yl)methyl)piperidin-4-yl)-3-isopropyl-1H-indol-2-yl)-1,3,6-trimethylpyridin-2(1H)-one]
